The values below come from PMC11413682 (Acta Pharmaceutica Sinica. B, 2024).

Read-outs that look alike come from different tables or passages of the source. Residues, ends and D or L forms follow the SMILES beside them. No end group written: not given here.

In general, Kd refers to the concentration at which binding is half-saturated.

The target in this experiment is T1, CUL2^ZYG11B (residues 490–728) (Homo sapiens, UniProt Q9C0D3).
T1 construct: PCR was used to amplify CUL2^ZYG11B (residues 490–728); 6×His-SUMO (TEV-cleavable) (N, cleaved yes); made in house; host or cells: E. coli
T1 sequence (Q9C0D3 490-728): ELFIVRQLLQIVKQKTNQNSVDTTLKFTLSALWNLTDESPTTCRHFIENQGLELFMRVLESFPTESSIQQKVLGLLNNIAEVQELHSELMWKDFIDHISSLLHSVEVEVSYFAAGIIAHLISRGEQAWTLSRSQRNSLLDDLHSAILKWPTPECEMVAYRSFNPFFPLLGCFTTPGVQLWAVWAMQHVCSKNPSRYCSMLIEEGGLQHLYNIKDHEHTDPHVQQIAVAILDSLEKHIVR
The experiment is described as follows: ITC binding of ORF10 NTE synthetic peptides to CUL2^ZYG11B.

Where [1] appears, read: figure panels, […], repeated 3 times, read-out: Kd.

For the compound “GFWCR [SNX11-degron-5, reference compound]”, the Kd (Table S4, ITC, MicroCal iTC200, peptide 0.5–1 mmol/L in syringe, protein 0.03 mmol/L in cell, 18 x 2 μL injections, repeated 3 times, Kd calculated as 1/Ka, read-out: Kd) was 0.4 µM.

In turn, SYINV [SARS-2 ORF10 N5-G1S] registered a Kd of 13.2 µM.

For `NCC(=O)N[C@@H](Cc1ccc(O)cc1)C(=O)O` [SARS-2 ORF10 N2] (H-Gly-Tyr-OH; N-terminus and C-terminus assumed), the Kd was greater than 200 µM. For the same compound, the “binding to CUL2^ZYG11B (in words)” value (ITC) was “did not bind”. For the same compound, where the note is “Table S4, ITC”, the “N, stoichiometry” value was determined as 5.05 and the “ΔS, entropy variation” value is reported as 6.52 cal/mole/deg.

For the compound `CC[C@H](C)[C@H](NC(=O)[C@H](Cc1ccc(O)cc1)NC(=O)CN)C(=O)O` [SARS-2 ORF10 N3] (H-Gly-Tyr-Ile-OH), the dissociation constant (Kd) under setting [1] stood at 14.5 µM.

Consider `CC[C@H](C)[C@H](NC(=O)[C@H](Cc1ccc(O)cc1)NC(=O)CN)C(=O)N[C@@H](CC(N)=O)C(=O)O` [SARS-2 ORF10 N4] (H-GYIN-OH), for which the equilibrium dissociation constant (Kd) under setting [1] is 5.18 µM.

GAINV [SARS-2 ORF10 N5-Y2A]: the equilibrium dissociation constant (Kd) under setting [1] was 25.2 µM.

In the case of “GPINV [SARS-2 ORF10 N5-Y2P, altered peptide derived from SARS-CoV-2 ORF10 N5, Y2P]”, the “binding to CUL2^ZYG11B (in words)” value (ITC) is reported as “disrupted binding completely”.
